From US9422308B2, “Derivatives of docosahexaenoylethanolamide and uses thereof” (The United States of America, as represented by the …, priority 2012, dated 2016)
“And” between values parts separate entries of the source, which are not always exact repeats. Identical values can stand only once.

Legend:
[1] = system: cortical neurons; experiment: neurite growth of embryonic mouse neurons (total neurite length/neuron, MAP2 immunostaining); type: cell-based; details: for effect with respect to cortical neurite growth as compared to DHA: FIGS. 1, 2; for dosage at which activity is exhibited as compared to DHA and synaptamide: dosages 10^-5 nM to 10 nM, FIG. 1
Experimental: To obtain embryonic mouse neurons for analysis, pregnant female mice were killed by cervical dislocation after exposure to CO2 inhalation. Embryonic neurons were prepared from E18 or P0 mouse hippocampi or cortex and cultured as described previously (Calderon and Kim, J. Neurochem., 90(4):979-88 (2004), errata in J Neurochem., September; 90(6):1540 (2004)), with slight modification. Briefly, hippocampi or cotices were dissected and dissociated by a method using either 0.25% trypsin (Gibco Invitrogen Corporation, Grand Island, N.Y.) in Hank's balanced salt solution (HBSS) or papain (20-30 U/mL) in dissociation media containing cysteine at 37° C. for 15 min. After the dissociation solution was aspirated off, cells were washed with same volume of HBSS, suspended in neurobasal medium (Gibco) containing 2% B27 supplement (Gibco), 1% glutamine/glutamax mix (1:4) (Gibco), 100 U/ml penicillin (Gibco) and 100 μg/ml streptomycin (Gibco), and seeded on poly-D-lysine chambered slides (Lab-Tek, Naperville, Ill.) at a density of 30,000 cells/cm^2. On the second day after seeding, the cells were treated with fatty acids, synaptamide or one of Compounds 1-50 for 48 h. Docosahexaenoic acid (DHA) and oleic acid (OA) were complexed with fatty acid-free bovine serum albumin (BSA; Sigma, St Louis, Mo.) in the presence of α-tocopherol (Sigma) under an argon atmosphere and darkness to prevent oxidation of the fatty acids. The mixture was mixed with fresh Neurobasal medium containing B27 supplement, glutamine/glutamax mix and antibiotics. Final concentrations of α-tocopherol and BSA in the culture medium were 40 μM and 0.01%, respectively. Alternatively, DHA, OA, synaptamide, or one of Compounds 1-50 were dissolved in DMSO and applied directly together with α-tocopherol. In such case, the final concentration of DMSO is less than 0.005%. All stock solutions were aliquoted under argon and stored at −70° C.
Cells were fixed with […] (Sigma) in PBS (pH 7.4) for 30 min. After permeabilization with 0.1% Triton X-100 (Sigma), cells were blocked for 1 h at 37° C. with PBS containing 10% goat serum (Gibco), and then incubated with the primary antibody against microtubule-associated protein (MAP2, mouse monoclonal 1:250; Sigma). After washing with PBS, cells were incubated with the corresponding Cy2-, Cy3-conjugated secondary antibody (Jackson Immunoresearch Laboratories Inc., West Grove, Pa.). For the nuclear staining, 0.06% 4,6-Diamidino-2-Phenylindole (Sigma) was used. After immunostaining, images were collected using an inverted motorized 1×81 Olympus (Melville, N.Y.) and the neurite length was analyzed with Metamorph software (Molecular Devices Corporation, Downingtown, Pa.). To minimize bias, neurons were evaluated blindly without the knowledge of sample identity. Four to six fields/well were chosen at random and only non-clustered neurons were evaluated to ensure the precision of the measurements. From each well, over 100 neurons were evaluated at 20× magnification for total neurite length/neuron. The data were obtained from triplicate wells and the experiments were repeated at least three times.
FIG. 2 provides graphical results of the data shown in Table 2, expressed as total neurite length per neuron. FIG. 3 provides graphical results of these experiments for compounds 11-50 (having designations as provided in Table 1, above), expressed as relative neurite length as compared to untreated controls. FIG. 4 provides graphical results of these experiments for compounds 1-10 (having designations as provided in Table 1, above), as applied to hippocampal neurons.
An additional assay was performed in which Compounds (A8), 4(A10), and 7(A9) were applied at varying dosages (from 10^−5 nM to 10 nM; 10^−5 nM, 10^−4 nM, 10^−2 nM, 0.1 nM, 1 nM, and 10 nM) as compared to DHA, synaptamide, and oleic acid. Neurite growth was measured at each dosage. Results of this assay are provided at FIG. 1.

[2] = target: T1, FAAH (Homo sapiens, UniProt O00519); experiment: time course FAAH enzyme assay; type: in vitro ADME; details: Conc. 1 mM, 0.1 U of FAAH, 37° C., pH=9.0
T1 sequence (O00519 1-579): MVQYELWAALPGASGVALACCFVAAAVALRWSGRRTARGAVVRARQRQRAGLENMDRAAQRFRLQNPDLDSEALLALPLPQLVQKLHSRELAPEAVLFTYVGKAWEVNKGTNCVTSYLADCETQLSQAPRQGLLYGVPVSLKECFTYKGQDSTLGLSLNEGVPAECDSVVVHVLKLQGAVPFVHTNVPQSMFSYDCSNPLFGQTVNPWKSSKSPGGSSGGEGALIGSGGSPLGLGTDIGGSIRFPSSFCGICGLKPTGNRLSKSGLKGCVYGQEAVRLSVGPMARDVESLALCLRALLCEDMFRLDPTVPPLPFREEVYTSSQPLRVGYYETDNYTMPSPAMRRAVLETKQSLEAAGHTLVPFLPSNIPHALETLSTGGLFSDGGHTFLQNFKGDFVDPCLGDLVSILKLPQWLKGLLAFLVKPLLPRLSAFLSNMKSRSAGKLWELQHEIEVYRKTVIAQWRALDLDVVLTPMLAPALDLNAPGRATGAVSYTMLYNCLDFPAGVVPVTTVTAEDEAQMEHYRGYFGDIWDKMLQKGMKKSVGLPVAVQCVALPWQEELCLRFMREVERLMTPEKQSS
Experimental: Method development: The signal was optimized for each compound by ESI positive or negative ionization mode. A MS2 SIM scan was used to optimize the precursor ion and a product ion analysis was used to identify the best fragment for analysis and to optimize the collision energy.
Analysis: Samples were analyzed by LC/MS/MS using a API 3000 coupled with an Shimadzu HPLC and a CTC PAL chilled autosampler, all […] controlled by Analyst software (ABI). After separation on a C18 reverse phase HPLC column (Agilent, Waters, or equivalent). Mobile phase A was 0.1% AcOH in water. Mobile phase B was 0.1% AcOH in methanol. The flow rate was 0.6 mL/min. The gradient program included a 0.5 min hold at 30% B (the starting conditions), followed by a gradient to 100% B over 2.5 min and a 1 min hold at 100% B. The column was then returned to starting conditions and equilibrated over 1.25 min.
Assay Protocol: Assays were performed at 37° C. at pH=9.0 and involved the use of 0.1 U of FAAH. […] Reaction was terminated after an appropriate time by using protein precipitation treatment with acetonitrile (3:1, v/v).

[3] = cortical neurons, 10 nM (FIG. 2), 48 h

For `CC/C=C\C/C=C\C/C=C\C/C=C\C/C=C\C/C=C\CCC(=O)NCCCCO` [Compound 2, (4Z,7Z,10Z,13Z,16Z,19Z)—N-(4-hydroxybutyl)docosa-4,7,10,13,16,19-hexaenamide], the “Neurite Length/Neuron (mean)” value [1, 3] was 6.9 μm.
For `CC/C=C\C/C=C\C/C=C\C/C=C\C/C=C\C/C=C\CCC(=O)NCCc1ccccc1` [Compound 7, (4Z,7Z,10Z,13Z,16Z,19Z)—N-phenethyldocosa-4,7,10,13,16,19-hexaenamide], the “Neurite Length/Neuron (mean)” value [1, 3] was 41.8 μm, the “effect with respect to cortical neurite growth as compared to DHA” value ([1]; cortical neurons) was “superior effect” and the “dosage at which activity is exhibited as compared to DHA and synaptamide” value [1] was “activity at significantly lower dosages”.
In the case of `CC/C=C\C/C=C\C/C=C\C/C=C\C/C=C\C/C=C\CCC(=O)NC(C)(C)CO` [Compound 8, (4Z,7Z,10Z,13Z,16Z,19Z)—N-(1-hydroxy-2-methylpropan-2-yl)docosa-4,7,10,13,16,19-hexaenamide], the “Neurite Length/Neuron (mean)” value [1, 3] is reported as 4.5 μm.
For `CCCCC/C=C\C/C=C\C/C=C\C/C=C\CCCC(=O)NCCO` [AEA, anandamide], the “% remaining” value ([2]; 0 min) was 74%, the “% remaining” value ([2]; 30 min) was 1% and the “% remaining” value ([2]; 60 min) was 1%.
With `CC/C=C\C/C=C\C/C=C\C/C=C\C/C=C\C/C=C\CCC(=O)NCCCO` [Compound 3, (4Z,7Z,10Z,13Z,16Z,19Z)—N-(3-hydroxypropyl)docosa-4,7,10,13,16,19-hexaenamide] the “Neurite Length/Neuron (mean)” value [1, 3] was 3.8 μm.
In the case of `CC/C=C\C/C=C\C/C=C\C/C=C\C/C=C\C/C=C\CCC(=O)NCCN(C)C` [Compound 5, (4Z,7Z,10Z,13Z,16Z,19Z)—N-(2-(dimethylamino)ethyl)docosa-4,7,10,13,16,19-hexaenamide], the “Neurite Length/Neuron (mean)” value [1, 3] is reported as 6.7 μm.
In the case of `CC/C=C\C/C=C\C/C=C\C/C=C\C/C=C\C/C=C\CCC(=O)NCCOC` [Compound 6, (4Z,7Z,10Z,13Z,16Z,19Z)—N-(2-methoxyethyl)docosa-4,7,10,13,16,19-hexaenamide], the “Neurite Length/Neuron (mean)” value [1, 3] is reported as 9.1 μm.
For `CC/C=C\C/C=C\C/C=C\C/C=C\C/C=C\C/C=C\CCC(=O)NCCO` [Synaptamide, Docosahexaenoylethanolamide], the “Neurite Length/Neuron (mean)” value [1, 3] was 29.3 μm, the “Neurite Length/Neuron, individual values” ([1]; cortical neurons, 10 nM (FIG. 2), 48 h, three individual values) was 33.1 μm and 29.2 μm and 25.5 μm and the “% remaining” value ([2]; 0 min) was 100%. For the same compound, the “% remaining” value ([2]; 30 min) was 5% and the “% remaining” value ([2]; 60 min) was 1%.
With `CC/C=C\C/C=C\C/C=C\C/C=C\C/C=C\C/C=C\CCC(=O)O` [DHA, Docosahexaenoic acid, reference compound] the “Neurite Length/Neuron (mean)” value ([1]; cortical neurons, DHA 100 nM (FIG. 2), 48 h) was 14.5 μm.
In the case of `CC/C=C\C/C=C\C/C=C\C/C=C\C/C=C\C/C=C\CCC(=O)N[C@@H](C)CO` [Compound 9, (4Z,7Z,10Z,13Z,16Z,19Z)—N—((S)-1-hydroxypropan-2-yl)docosa-4,7,10,13,16,19-hexaenamide], the “Neurite Length/Neuron (mean)” value [1, 3] is reported as 9.6 μm.
`CC/C=C\C/C=C\C/C=C\C/C=C\C/C=C\C/C=C\CCC(=O)N[C@H](C)CO` [Compound 10, (4Z,7Z,10Z,13Z,16Z,19Z)—N—((R)-1-hydroxypropan-2-yl)docosa-4,7,10,13,16,19-hexaenamide] was tested, and the “Neurite Length/Neuron (mean)” value [1, 3] was 9.5 μm.
For `CC/C=C\C/C=C\C/C=C\C/C=C\C/C=C\C/C=C\CCC(=O)NCCN1CCOCC1` [Compound 4, (4Z,7Z,10Z,13Z,16Z,19Z)—N-(2-morpholinoethyl)docosa-4,7,10,13,16,19-hexaenamide], the “Neurite Length/Neuron (mean)” value [1, 3] was 20.8 μm, the “effect with respect to cortical neurite growth as compared to DHA” value ([1]; cortical neurons) was “superior effect” and the “dosage at which activity is exhibited as compared to DHA and synaptamide” value [1] was “activity at significantly lower dosages”.
